Laboratory results published in article PMC10857906, “PROTAC-mediated NR4A1 degradation as a novel strategy for cancer immunotherapy” (The Journal of Experimental Medicine, 2024).

Assays:
NR4A1 = molecular target: T1, NR4A1 (Mus musculus, UniProt P12813); assay: NR4A1 degradation in SM1 and SW1 mouse melanoma cell lines (immunoblotting); assay type: cell-based; conditions: 16 h
T1 construct: from tissue; host or cells: MC38 tumours in mice (tumour lysates)
Method: Human melanoma cell lines: A375 and CHL-1 (gifts from Dr. D. Zhou, the University of Texas Health Science Center, San Antonio, TX, USA) were cultured in Dulbecco’s Modified Eagles’ Medium (DMEM, D5796; Sigma-Aldrich), WM164 and M229 (gifts from Dr. K.S.M. Smalley’s lab) were cultured in RPMI-1640 (R8758; Sigma-Aldrich). Mouse melanoma cell lines: B16F10 (CRL-6475, ATCC) was cultured in DMEM, SW1 and SM1 (gift from Dr. K.S.M. Smalley, Moffitt Cancer Center, Tampa, FL, USA) were cultured in RPMI. Human epithelial kidney cell lines: HEK293T (293T, CRL-3216; ATCC) and Vhl-KO-293T (gift from Dr. D. Zhou, the University of Texas Health Science Center, San Antonio, TX, USA) were cultured in DMEM. Mouse colon cancer cell lines: MC38 (ENH204-FP; Kerafast Inc.) was cultured in DMEM supplemented with 1 mM glutamine, […] non-essential amino acids (11140050; Thermo Fisher Scientific), 1 mM sodium pyruvate (11360070; Thermo Fisher Scientific), and 10 mM HEPES (15630080; Thermo Fisher Scientific). […]
Samples were lysed using radioimmunoprecipitation assay buffer (RIPA) lysis buffer (150 mM NaCl, 5 mM EDTA, 50 mM Tris pH 8.0, 0.5% sodium deoxycholate, 1% NP-40, 0.1% SDS) supplemented with 1 mM dithiothreitol and protease inhibitors. The lysates were separated by SDS-PAGE and analyzed using standard western blotting procedures ([Khan et al., 2019]). […]

human CD8^+ Texh cells = assay: T cell exhaustion in vitro, human PBMC-derived T cells; assay type: cell-based; conditions: 500 nM, 48 h
Method: We conducted experiments involving the isolations and treatments of CD8^+ T cells from both OT-1 mice (C57BL/6-Tg(TcraTcrb)1100Mjb/J; Jackson Laboratories) and T cells from human PBMCs. CD8^+ T cells were isolated from OT-1 mice using the EasySep Mouse CD8 T Cell Isolation Kit, followed by daily treatment with 10 ng/ml ovalbumin (257–264) (S7951-1MG; Sigma-Aldrich) for specified durations. After 3 days of ovalbumin treatment, OT-1 CD8^+ T cells were activated, and after 7 days of treatment, they reached a state of exhaustion. Human T cells were isolated from PBMCs using the EasySep Human CD3 Positive Selection Kit II (17851; STEMCELL) and cultured with Dynabeads (Cell/Dynabeads: 1:1, A56992; Thermo Fisher Scientific) for 3 days to induce activation and for 7 days to induce exhaustion. Both mouse and human T cells received a treatment of 500 nM NR-V04 2 days prior to harvesting. To characterize the T cell subtypes, we employed specific flow cytometry antibodies and conducted flow cytometry analysis.
Mouse tumors were excised and ∼200 mg of tumor tissue was enzymatically and mechanically digested using the mouse Tumor Dissociation Kit (Miltenyi Biotec) to obtain a single-cell suspension. […] Flow cytometry was performed on a three laser Cytek Aurora Cytometer (Cytek Biosciences) and analyzed using FlowJo software (BD Biosciences). […]

T1 sequence (P12813 whole entry): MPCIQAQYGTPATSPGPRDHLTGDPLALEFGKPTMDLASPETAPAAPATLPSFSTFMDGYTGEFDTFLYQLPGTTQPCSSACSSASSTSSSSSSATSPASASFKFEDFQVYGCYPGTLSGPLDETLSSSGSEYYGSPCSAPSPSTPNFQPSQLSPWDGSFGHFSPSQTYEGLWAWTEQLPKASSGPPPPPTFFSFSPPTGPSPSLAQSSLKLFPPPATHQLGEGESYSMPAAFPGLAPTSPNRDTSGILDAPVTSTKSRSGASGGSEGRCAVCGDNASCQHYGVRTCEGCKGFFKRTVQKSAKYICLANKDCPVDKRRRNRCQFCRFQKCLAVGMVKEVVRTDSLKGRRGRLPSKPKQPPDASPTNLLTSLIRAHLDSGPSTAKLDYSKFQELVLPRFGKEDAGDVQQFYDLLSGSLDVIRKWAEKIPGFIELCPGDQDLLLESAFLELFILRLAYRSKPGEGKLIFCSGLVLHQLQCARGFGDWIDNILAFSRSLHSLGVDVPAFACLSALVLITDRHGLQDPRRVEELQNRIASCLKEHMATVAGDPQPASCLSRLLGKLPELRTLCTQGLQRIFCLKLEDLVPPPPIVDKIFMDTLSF

**Q.** For `CC1=C(O)C(=O)C=C2C1=CC=C1[C@@]2(C)CC[C@@]2(C)[C@@H]3C[C@](C)(C(=O)NCCOCCOCCOCCOCC(=O)N[C@H](C(=O)N4C[C@H](O)C[C@H]4C(=O)N[C@@H](C)c4ccc(-c5scnc5C)cc4)C(C)(C)C)CC[C@]3(C)CC[C@]12C` [NR-V04], which NR4A1 protein level (NR4A1; SM1 mouse melanoma cells) is on record?
**A.** reduced NR4A1 protein level

**Q.** And the NR4A1 protein level (NR4A1; SW1 mouse melanoma cells)?
**A.** reduced NR4A1 protein level

**Q.** And the “CD8^+ Texh cells (CD8^+CTLA-4^+Tim3^+)” value (human CD8^+ Texh cells)?
**A.** significant reduction in CD8^+ Texh cells
